How the values were obtained:
Test in all cases: relative viability (nuclei count vs DMSO), 5 days (fraction); higher = more cells survive
Carfilzomib + Trametinib = compound: CC(C)C[C@H](NC(=O)[C@H](CCc1ccccc1)NC(=O)CN1CCOCC1)C(=O)N[C@@H](Cc1ccccc1)C(=O)N[C@@H](CC(C)C)C(=O)[C@@]1(C)CO1 [Carfilzomib] + CC(=O)Nc1cccc(-n2c(=O)n(C3CC3)c(=O)c3c(Nc4ccc(I)cc4F)n(C)c(=O)c(C)c32)c1 [Trametinib] (partner 0.02 µM)
Summary of the method: (§1)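 Lung cancer cell lines were pin-tool dosed in 1536-well plates on the day after seeding, with either a lone drug or a fixed anchor-drug dose plus five library-drug doses (not always all listed) in √10 steps. Nuclei were counted on 4× images after 5 days. Relative viability is the ratio of treated-well to vehicle-well nuclei counts, with each value a median of duplicate plates.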

Carfilzomib + Foretinib = compound: CC(C)C[C@H](NC(=O)[C@H](CCc1ccccc1)NC(=O)CN1CCOCC1)C(=O)N[C@@H](Cc1ccccc1)C(=O)N[C@@H](CC(C)C)C(=O)[C@@]1(C)CO1 [Carfilzomib] + COc1cc2c(Oc3ccc(NC(=O)C4(C(=O)Nc5ccc(F)cc5)CC4)cc3F)ccnc2cc1OCCCN1CCOCC1 [Foretinib] (partner 0.25 µM)
Summary of the method: as §1

Carfilzomib + AZD7762 = compound: CC(C)C[C@H](NC(=O)[C@H](CCc1ccccc1)NC(=O)CN1CCOCC1)C(=O)N[C@@H](Cc1ccccc1)C(=O)N[C@@H](CC(C)C)C(=O)[C@@]1(C)CO1 [Carfilzomib] + NC(=O)Nc1cc(-c2cccc(F)c2)sc1C(=O)N[C@H]1CCCNC1 [AZD7762] (partner 0.2 µM)
Summary of the method: as §1

Crizotinib + Pictilisib = compound: C[C@@H](Oc1cc(-c2cnn(C3CCNCC3)c2)cnc1N)c1c(Cl)ccc(F)c1Cl [Crizotinib] + CS(=O)(=O)N1CCN(Cc2cc3nc(-c4cccc5[nH]ncc45)nc(N4CCOCC4)c3s2)CC1 [Pictilisib] (partner 1 µM)
Summary of the method: as §1

Row | Cell Line | relative viability (Carfilzomib + Trametinib; first compound 0.001 µM) | relative viability (Carfilzomib + Trametinib; first compound 0.003162 µM) | relative viability (Carfilzomib + Trametinib; first compound 0.01 µM) | relative viability (Carfilzomib + Trametinib; first compound 0.03162 µM) | relative viability (Carfilzomib + Trametinib; first compound 0.1 µM) | relative viability (Carfilzomib + Foretinib; first compound 0.001 µM) | relative viability (Carfilzomib + Foretinib; first compound 0.003162 µM) | relative viability (Carfilzomib + Foretinib; first compound 0.01 µM) | relative viability (Carfilzomib + Foretinib; first compound 0.03162 µM) | relative viability (Carfilzomib + Foretinib; first compound 0.1 µM) | relative viability (Carfilzomib + AZD7762; first compound 0.001 µM) | relative viability (Carfilzomib + AZD7762; first compound 0.003162 µM) | relative viability (Carfilzomib + AZD7762; first compound 0.01 µM) | relative viability (Carfilzomib + AZD7762; first compound 0.03162 µM) | relative viability (Carfilzomib + AZD7762; first compound 0.1 µM) | relative viability (Crizotinib + Pictilisib; first compound 0.01 µM) | relative viability (Crizotinib + Pictilisib; first compound 0.03162 µM) | relative viability (Crizotinib + Pictilisib; first compound 0.1 µM) | relative viability (Crizotinib + Pictilisib; first compound 0.3162 µM) | relative viability (Crizotinib + Pictilisib; first compound 1 µM)
1 | HOP-62 | 0.385 | 0.38 | 0.363 | 0.21 | 0.0811 | 1.12 | 1.13 | 0.938 | 0.328 | 0.0784 | 0.619 | 0.699 | 0.404 | 0.173 | 0.0821 | 0.469 | 0.625 | 0.779 | 0.342 | 0.624
2 | LC-2-ad | 0.9 | 0.97 | 0.881 | 0.917 | 0.471 | 0.881 | 1.01 | 1.08 | 0.903 | 0.221 | 0.798 | 0.913 | 0.856 | 0.794 | 0.608 | 0.473 | 0.426 | 0.461 | – | 0.44
3 | LCLC-97TM1 | 0.19 | 0.21 | 0.227 | 0.0729 | 0.0639 | 0.958 | 0.874 | 0.893 | 0.529 | 0.25 | 0.219 | 0.246 | 0.252 | 0.158 | 0.0638 | 0.205 | 0.18 | 0.182 | 0.128 | 0.194
4 | LCLC-103H | 0.688 | 0.643 | 0.72 | 0.642 | 0.557 | 0.772 | 0.714 | 0.814 | 0.646 | 0.225 | 0.767 | 0.849 | 0.759 | 0.778 | 0.402 | 0.547 | 0.65 | 0.669 | 0.583 | 0.576
5 | LK-2 | 0.713 | 0.973 | 0.747 | 0.172 | 0.2 | 1.24 | 1.25 | 1.42 | 0.144 | 0.16 | 0.369 | 0.519 | 0.399 | 0.0916 | 0.0762 | 0.51 | 0.59 | 0.492 | 0.645 | 0.568
6 | LOU-NH91 | 0.831 | 0.81 | 0.818 | 0.389 | 0.33 | 0.934 | 1.04 | 0.875 | 0.303 | 0.224 | 0.741 | 0.778 | 0.679 | 0.309 | 0.329 | 0.45 | 0.531 | 0.618 | 0.515 | 0.484
7 | LU99A | 0.525 | 0.588 | 0.541 | 0.417 | 0.284 | 0.943 | 0.772 | 0.847 | 0.565 | 0.246 | 0.346 | 0.368 | 0.33 | 0.26 | 0.187 | 0.261 | 0.327 | 0.348 | 0.336 | 0.365
8 | LXF-289 | 0.705 | 0.742 | 0.679 | 0.163 | 0.107 | 1 | 0.945 | 0.948 | 0.464 | 0.0789 | 1.06 | 1.14 | 1.14 | 0.119 | 0.114 | 0.757 | 0.803 | 0.726 | 0.757 | 0.782
9 | NCI-H23 | 0.39 | 0.328 | 0.428 | 0.238 | 0.0981 | 0.873 | 1.11 | 1.09 | 0.188 | 0.134 | 0.232 | 0.267 | 0.196 | 0.112 | 0.122 | 0.441 | 0.539 | 0.505 | – | 0.541
10 | NCI-H322M | 0.505 | 0.49 | 0.487 | 0.507 | 0.364 | 0.981 | 1.01 | 0.999 | 0.943 | 0.359 | 0.677 | 0.527 | 0.682 | 0.59 | 0.464 | 0.432 | 0.522 | 0.493 | 0.585 | 0.52
11 | NCI-H358 | 0.139 | 0.136 | 0.141 | 0.0944 | 0.0819 | 0.688 | 1.01 | 0.63 | 0.0762 | 0.0649 | 0.449 | 0.615 | 0.63 | 0.255 | 0.226 | 0.338 | 0.354 | 0.35 | 0.27 | 0.325
12 | NCI-H441 | 0.554 | 0.445 | 0.236 | 0.103 | 0.115 | 0.878 | 0.977 | 0.61 | 0.199 | 0.349 | 1.06 | 1.23 | 1.07 | 0.252 | 0.138 | 0.436 | 0.395 | 0.432 | 0.34 | 0.443
13 | NCI-H460 | 0.116 | 0.143 | 0.181 | 0.13 | 0.0157 | 0.97 | 1.05 | 0.988 | 0.75 | 0.0297 | 0.655 | 0.567 | 0.687 | 0.732 | 0.0739 | 0.4 | 0.349 | 0.302 | 0.309 | 0.314
14 | NCI-H596 | 0.785 | 0.804 | 0.952 | 0.69 | 0.205 | 0.813 | 0.84 | 0.812 | 0.195 | 0.148 | 1.05 | 1.22 | 1.09 | 0.66 | 0.211 | 0.348 | 0.378 | 0.354 | 0.414 | 0.367
15 | NCI-H647 | 0.415 | 0.529 | 0.538 | 0.0767 | 0.0407 | 1.19 | 1.33 | 1.26 | 0.0352 | 0.0362 | 0.385 | 0.468 | 0.29 | 0.0154 | 0.0223 | 0.432 | 0.393 | 0.459 | – | 0.269
16 | NCI-H650 | 0.899 | 1.1 | 1.08 | 0.798 | 0.169 | – | 1.27 | 1.03 | 0.71 | 0.174 | 0.862 | 1.1 | 0.964 | 0.88 | 0.23 | 0.883 | 0.893 | 0.865 | 0.799 | 0.783
17 | NCI-H727 | 0.428 | 0.376 | 0.46 | 0.41 | 0.312 | 0.758 | 0.891 | 0.996 | 0.617 | 0.397 | 0.511 | 0.498 | 0.685 | 0.608 | 0.242 | 0.368 | 0.389 | 0.561 | 0.285 | 0.29
18 | NCI-H838 | 0.517 | 0.575 | 0.614 | 0.215 | 0.0888 | 1.06 | 1.12 | 1.15 | 0.974 | 0.131 | 0.945 | 0.989 | 0.954 | 0.962 | 0.621 | 0.396 | 0.5 | 0.483 | 0.426 | 0.496
19 | NCI-H1355 | 0.42 | 0.469 | 0.422 | 0.44 | 0.139 | 0.995 | 1.07 | 1.03 | 0.714 | 0.198 | 0.8 | 0.886 | 0.91 | 0.512 | 0.207 | 0.45 | 0.52 | 0.413 | 0.297 | 0.434
20 | NCI-H1395 | – | 0.997 | 1.11 | 0.566 | 0.344 | 0.981 | 1.07 | 0.954 | 0.527 | 0.329 | – | 0.451 | 0.399 | 0.346 | 0.327 | 0.621 | 0.557 | 0.73 | 0.906 | 0.542
21 | NCI-H1437 | 0.497 | 0.568 | 0.637 | 0.312 | 0.194 | 1.29 | 1.4 | 1.29 | 1.19 | 0.284 | 1.07 | 1.13 | 1.13 | 1.14 | 0.478 | 0.311 | 0.461 | 0.389 | 0.375 | 0.439
22 | NCI-H1651 | 0.79 | 0.9 | 0.794 | 0.304 | 0.119 | 0.906 | 0.762 | 0.71 | 0.112 | 0.0981 | 0.372 | 0.471 | 0.457 | 0.208 | 0.0827 | 0.437 | 0.65 | 0.514 | 0.559 | 0.572
23 | NCI-H1666 | 0.907 | 0.852 | 0.988 | 0.72 | 0.513 | 0.988 | 0.979 | 1.07 | 0.928 | 0.45 | 0.837 | 0.935 | 1.1 | 0.704 | 0.475 | 0.483 | 0.484 | 0.325 | 0.553 | 0.3
24 | NCI-H1734 | 0.67 | 0.785 | 0.627 | 0.641 | 0.152 | 0.876 | 1.06 | 0.954 | 0.401 | 0.105 | 0.549 | 0.633 | 0.521 | 0.204 | 0.114 | 0.419 | 0.406 | 0.381 | – | 0.39
25 | NCI-H1755 | 0.809 | 0.837 | 0.668 | 0.769 | 0.511 | 0.954 | 0.939 | 0.954 | 0.928 | 0.479 | 0.476 | 0.502 | 0.496 | 0.435 | 0.409 | 0.413 | 0.485 | 0.444 | 0.309 | 0.437
26 | NCI-H1915 | 0.266 | 0.302 | 0.295 | 0.289 | 0.106 | 1.09 | 1.09 | 1.05 | 1.04 | 0.203 | 0.61 | 0.711 | 0.57 | 0.414 | 0.125 | 0.874 | 0.88 | 1.01 | – | 0.952
27 | NCI-H1944 | 0.457 | 0.464 | 0.398 | 0.473 | 0.202 | 0.932 | 0.955 | 0.949 | 0.931 | 0.337 | 0.538 | 0.568 | 0.587 | 0.448 | 0.317 | 0.322 | 0.341 | 0.328 | 0.344 | 0.343

— the supplement of paper PMC10307832
